The supplement of paper PMC10307832

Assays:
Assay in all cases: relative viability (nuclei count vs DMSO), 5 days (fraction); higher = more cells survive
[1] = compound: CC(C)N(CCCNC(=O)Nc1ccc(C(C)(C)C)cc1)C[C@H]1O[C@@H](n2ccc3c(N)ncnc32)[C@H](O)[C@@H]1O + CS(=O)(=O)N1CCN(Cc2cc3nc(-c4cccc5[nH]ncc45)nc(N4CCOCC4)c3s2)CC1 [Pictilisib] (partner 1 µM)
Outline: (§1)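 The day after seeding in 1536-well plates, lung cancer cell lines were treated by pin tool with a single drug, or with a fixed anchor-drug dose together with five library-drug doses (not always all listed) in √10 steps. After 5 days, a combined fix-and-stain solution (final 0.05% Triton X-100, 1% formaldehyde, 1 ug/ml Hoechst) was added. Nuclei counted on 4× images gave relative viability as treated counts over vehicle counts, reported as the median of duplicate plates.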

[2] = compound: CC(C)N(CCCNC(=O)Nc1ccc(C(C)(C)C)cc1)C[C@H]1O[C@@H](n2ccc3c(N)ncnc32)[C@H](O)[C@@H]1O + COc1cc2c(Oc3ccc(NC(=O)C4(C(=O)Nc5ccc(F)cc5)CC4)cc3F)ccnc2cc1OCCCN1CCOCC1 [Foretinib] (partner 0.25 µM)
Outline: as §1

Shikonin + Dasatinib = compound: CC(C)=CC[C@@H](O)C1=CC(=O)c2c(O)ccc(O)c2C1=O [Shikonin] + Cc1nc(Nc2ncc(C(=O)Nc3c(C)cccc3Cl)s2)cc(N2CCN(CCO)CC2)n1 [Dasatinib] (partner 0.075 µM)
Outline: as §1

[3] = compound: CC(C)N(CCCNC(=O)Nc1ccc(C(C)(C)C)cc1)C[C@H]1O[C@@H](n2ccc3c(N)ncnc32)[C@H](O)[C@@H]1O + CC(=O)Nc1cccc(-n2c(=O)n(C3CC3)c(=O)c3c(Nc4ccc(I)cc4F)n(C)c(=O)c(C)c32)c1 [Trametinib] (partner 0.02 µM)
Outline: as §1

Row | Cell Line | relative viability ([1]; first compound 0.08 µM) | relative viability ([1]; first compound 0.253 µM) | relative viability ([1]; first compound 0.8 µM) | relative viability ([1]; first compound 2.53 µM) | relative viability ([1]; first compound 8 µM) | relative viability ([2]; first compound 0.08 µM) | relative viability ([2]; first compound 0.8 µM) | relative viability ([2]; first compound 2.53 µM) | relative viability ([2]; first compound 8 µM) | relative viability (Shikonin + Dasatinib; first compound 0.01 µM) | relative viability (Shikonin + Dasatinib; first compound 0.1 µM) | relative viability (Shikonin + Dasatinib; first compound 0.3162 µM) | relative viability (Shikonin + Dasatinib; first compound 1 µM) | relative viability ([3]; first compound 0.08 µM) | relative viability ([3]; first compound 0.253 µM) | relative viability ([3]; first compound 0.8 µM) | relative viability ([3]; first compound 2.53 µM) | relative viability ([3]; first compound 8 µM) | relative viability ([2]; first compound 0.253 µM)
1 | NCI-H596 | 0.388 | 0.412 | 0.173 | 0.355 | 0.414 | 0.792 | 0.846 | 1.02 | 0.872 | 0.585 | 0.59 | 0.566 | 0.641 | 0.858 | 0.759 | 0.842 | 0.753 | 0.765 | –
2 | NCI-H727 | 0.358 | 0.375 | 0.397 | 0.458 | 0.331 | 0.872 | 0.777 | 1.13 | 0.877 | 0.391 | 0.397 | 0.344 | 0.241 | 0.36 | 0.424 | 0.416 | 0.349 | 0.396 | 0.891
3 | NCI-H838 | 0.328 | 0.372 | 0.425 | 0.473 | 0.494 | 1.05 | 1.17 | 0.981 | 0.943 | 0.314 | 0.284 | 0.262 | 0.333 | 0.501 | 0.328 | 0.464 | 0.559 | 0.529 | 0.981
4 | NCI-H1793 | 0.296 | – | 0.369 | 0.281 | 0.35 | 0.709 | 0.677 | 0.606 | 0.621 | 0.419 | 0.376 | 0.381 | 0.461 | 0.394 | – | 0.367 | 0.446 | 0.422 | –
5 | NCI-H1734 | 0.405 | 0.531 | 0.435 | 0.496 | 0.413 | 0.825 | 0.918 | 0.796 | 0.804 | 0.512 | 0.499 | 0.538 | 0.477 | 0.587 | 0.653 | 0.69 | 0.703 | 0.561 | 1.01
6 | LXF-289 | 0.775 | 0.752 | 0.788 | 0.852 | 0.738 | 0.96 | 0.94 | 1.01 | 0.94 | 0.213 | 0.214 | 0.231 | 0.229 | 0.661 | 0.684 | 0.651 | 0.732 | 0.71 | 1.03
7 | H3255 | 0.463 | 0.414 | 0.442 | 0.557 | 0.461 | 0.92 | 0.897 | 0.797 | 0.792 | 0.285 | 0.331 | 0.325 | 0.348 | 0.492 | 0.593 | 0.483 | 0.587 | 0.49 | 0.881
8 | 201T | 0.652 | 0.624 | 0.571 | 0.722 | 0.733 | 1.05 | – | 1.13 | 1.13 | 0.561 | 0.661 | 0.579 | 0.615 | 0.719 | 0.692 | – | 0.733 | 0.695 | 1.04
9 | NCI-H2228 | 0.483 | – | 0.462 | 0.478 | 0.28 | 0.865 | 0.931 | 0.976 | 0.905 | 0.539 | 0.534 | 0.46 | 0.522 | 0.631 | 0.375 | 0.388 | 0.52 | 0.526 | 0.895
